# System: Wnt signaling
# Experiment: Wnt-Luc reporter assay for pathway inhibition of Wnt signaling
# Type: cell-based, Mouse (TM3 Wnt-Luc cells) or Human (293 Wnt-Luc cells)
# Conditions: 24 h, Wnt-Luc reporter cells co-cultured with L-cell Wnt3a cells, luciferase luminescence reduced by 50%
# Source text: The exemplified compounds of the invention are summarized in Table 1, with IC50 values measured using Wnt-Luc reporter assays.
row,SMILES,IC50 [nM]
1,Cc1cc(CC(=O)Nc2ccc(-c3cccc(F)c3)cn2)cnc1-c1ccnnc1 [Cpd 74],< 0.1
2,Cc1cc(-c2ccc(CC(=O)Nc3ccc(-c4ccccc4)cn3)cn2)ccn1 [compound 51],< 0.14
3,Cc1cc(-c2ccc(CC(=O)Nc3ccc(-c4ccccc4)nc3)cc2)ccn1 [compound 36],< 0.11
4,Cc1cc(-c2ncc(CC(=O)Nc3ccc(-c4cnccn4)cn3)cc2C)ccn1 [Cpd 86],0.38

# Now from value to molecule:
row,IC50 [nM],SMILES
1,< 0.09,Cc1cc(-c2ccc(CC(=O)Nc3ccc(-c4cccc(F)c4)cn3)cc2)ccn1 [compound 56]
2,< 0.11,Cc1cc(-c2ccc(CC(=O)Nc3ccc(-c4cccnc4)cc3)cc2)ccn1 [compound 59]
3,< 0.4,Cc1cc(-c2ccc(CC(=O)Nc3ccc(-c4ccccc4)cn3)cc2)ccn1 [Cpd 26]
